Source: PubChem BioAssay (NCI)
Values joined by “and” are separate entries in the source; they are usually repeats but may differ in a detail not shown here. Identical values can stand only once.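 Cultured in 96-well plates, cells were exposed to test compound for 48 hours across five concentrations. The concentration for 50% growth inhibition is given as GI50. At the TGI there is no net growth.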

Legend:
Assay in all cases: NCI tumour cell line growth inhibition, 48 h
RXF 393 renal = tested on: RXF 393 renal
NCI-H460 lung = tested on: NCI-H460 lung
T-47D breast = tested on: T-47D breast
MOLT-4 leukemia = tested on: MOLT-4 leukemia
A498 renal = tested on: A498 renal
KM12 colon = tested on: KM12 colon
DMS 273 small cell lung = tested on: DMS 273 small cell lung
HCC-2998 colon = tested on: HCC-2998 colon
DLD-1 colon = tested on: DLD-1 colon
RPMI-8226 leukemia = tested on: RPMI-8226 leukemia

Row | SMILES | TGI (RXF 393 renal) | GI50 (NCI-H460 lung) [µM] | TGI (NCI-H460 lung) | GI50 (T-47D breast) [µM] | TGI (T-47D breast) | GI50 (MOLT-4 leukemia) [µM] | TGI (MOLT-4 leukemia) | GI50 (A498 renal) [µM] | TGI (A498 renal) | GI50 (KM12 colon) [µM] | TGI (KM12 colon) | TGI (DMS 273 small cell lung) [µM] | TGI (HCC-2998 colon) | TGI (DLD-1 colon) [µM] | TGI (RPMI-8226 leukemia) | GI50 (HCC-2998 colon) [µM] | GI50 (DMS 273 small cell lung) | GI50 (DLD-1 colon)
1 | CCN(CC)CCCC(C)Nc1c2ccc(Cl)cc2nc2ccc(OC)cc12 (configuration not stated) | 2.53 µM | 1.3 | 3.21 µM and 2.4 µM | 2.59 | 7.01 µM and 5.68 µM | 0.863 | 4.34 µM and 2.52 µM | 1.64 | 6.93 µM and 5.11 µM | 2.39 | 7.83 µM and 5.14 µM | 2.04 | 2.9 µM and 2.69 µM | 4.39 | 5.74 µM and 5.11 µM | – | – | –
2 | COc1ccc(NC(=O)C(=O)C(C(=O)c2ccccc2)C2OC(=O)c3ccccc32)c([N+](=O)[O-])c1 (configuration not stated) | > 100 µM | – | > 100 µM | – | – | – | > 100 µM | – | > 100 µM | – | > 100 µM | > 100 | > 100 µM | > 100 | > 100 µM | – | – | –
3 | NC(=O)C(=Cc1ccc(C(O)P(=O)(O)O)cc1)C(N)=O (configuration not stated) | > 100 µM | – | > 100 µM | – | – | – | > 100 µM | – | > 100 µM | – | > 100 µM | > 100 | > 100 µM | > 100 | > 100 µM | – | – | –
4 | Cc1[nH]c2ccccc2c1C1Cc2ccccc2N1C(=O)/C=C\C(=O)O (configuration not stated) | 71.3 µM | – | > 100 µM | – | – | – | > 100 µM | – | > 100 µM | – | > 100 µM | > 100 | > 100 µM | > 100 | – | – | – | –
5 | O=C(Nc1cc(Cl)c(Cl)cc1Cl)C(=O)C1C=CCS1(=O)=O (configuration not stated) | > 100 µM | – | > 100 µM | – | – | – | > 100 µM | – | > 100 µM | – | > 100 µM | > 100 | > 100 µM | > 100 | > 100 µM | – | – | –
6 | Cc1c(NC(=O)C(C)(C)Br)c(=O)oc2c(C)c3occc(=O)c3cc12 | > 100 µM | – | > 100 µM | – | – | – | > 100 µM | – | 66.3 µM | – | – | > 100 | > 100 µM | > 100 | > 100 µM | – | – | –
7 | CC(=O)OCC1OC(N2C(=O)C(=O)c3cc(C)ccc32)C(OC(C)=O)C(OC(C)=O)C1OC(C)=O (configuration not stated) | 90.7 µM | – | > 100 µM | – | – | – | > 100 µM | – | > 100 µM | – | > 100 µM | > 100 | – | > 100 | 70.1 µM | – | – | –
8 | CC1=C(C(=O)Nc2ccccc2C)C(c2ccc(Cl)c(Cl)c2)C(C(=O)Nc2ccccc2C)=C(C)N1 | 41.6 µM | – | 36.4 µM | – | – | – | 48.8 µM | – | 61.8 µM | – | 87.4 µM | 41.1 | 69.9 µM | > 100 | 53.7 µM | – | – | –
9 | CCCCCCCCC[C@@H]1CC(=O)OCC2OC(O[C@H](CCCCCCCCC)CC(=O)OCC3OC(O[C@H](CCCCCCCCC)CC(=O)OCC4OC(O1)C(O)C(O)C4O)C(O)C(O)C3O)C(O)C(O)C2O (some centres not stated) | 30.9 µM | – | 17.3 µM | – | – | – | 20.6 µM | – | 27.9 µM | – | 20.2 µM | 21.6 | 24.7 µM | 28.2 | 32.7 µM | – | – | –
10 | CCN(CC)CC(O)CNc1ccc(NCC2CO2)c2c1C(=O)c1ccccc1C2=O (configuration not stated) | 0.953 µM | 0.39 | 3.16 µM | – | – | 0.00515 | 0.0582 µM and 0.0292 µM | – | 11.6 µM | – | 1.74 µM | 1.68 | 2.77 µM | 10.7 | 5.35 µM | 0.587 | – | –
11 | C=CC1(C(=O)O)CCC(C(C)(C)C)CC1 (configuration not stated) | > 100 µM | – | > 100 µM | – | – | – | > 100 µM | – | > 100 µM | – | > 100 µM | > 100 | > 100 µM | > 100 | > 100 µM | – | – | –
12 | Cc1c[nH]c2c(O)cc3c(c12)[C@H](CCl)CN3C(=O)c1cc2cc(NC(=O)Nc3ccc4[nH]c(C(=O)N5C[C@@H](CCl)c6c5cc(O)c5[nH]cc(C)c65)cc4c3)ccc2[nH]1 | 70.8 nM and > 100 µM and 0.000888 µg/mL | – | – | 0.00671 | 0.0911 µM and 0.0461 µM | – | – | – | 75.7 nM and 15 µM and 0.00215 µg/mL | – | 15 nM and 28.1 µM and 3e-06 µg/mL | – | – | – | – | – | 0.000887 ng/mL and 0.888 ng/mL | 0.000887 ng/mL and 1.4 ng/mL
13 | CC(C)CS(=O)(=O)/C(=C(\c1ccc(Br)cc1)S(=O)(=O)CC(C)C)c1ccc(Br)cc1 | > 100 µM | – | > 100 µM | – | – | – | > 100 µM | – | 31.6 µM | – | > 100 µM | > 100 | > 100 µM | > 100 | > 100 µM | – | – | –
14 | COc1cc(Cl)c2c3c(c(C(C)=O)oc13)CCC2 | > 100 µM | – | > 100 µM | – | – | – | – | – | > 100 µM | – | – | > 100 | > 100 µM | > 100 | > 100 µM | – | – | –
15 | CC1C[C@@]2(c3ccccc3)C(=O)CCC[C@H]2N1 (some centres not stated) | > 100 µM | – | > 100 µM | – | – | – | > 100 µM | – | > 100 µM | – | > 100 µM | > 100 | – | > 100 | – | – | – | –
16 | O=C(/C=C/c1ccc([N+](=O)[O-])o1)N1CCN(Cc2ccccc2)CC1 | 24.5 µM | – | 29.8 µM | – | – | – | 38.7 µM | – | 29.2 µM | – | 27.1 µM | 24 | 29.3 µM | 19.7 | 32.3 µM | – | – | –
17 | CCOC(=O)Nc1nc2ccc(Cn3cccc3)cc2[nH]1 | > 22.3 µM | – | > 100 µM | – | > 100 µM | – | > 100 µM | – | 41.6 µM | – | > 100 µM | > 100 | > 26.5 µM | > 100 | > 100 µM | – | – | –
18 | COC(=O)C1C(C(=O)OC)C2(OC)c3ccccc3-c3ccccc3C12 (configuration not stated) | > 100 µM | – | > 100 µM | – | – | – | 43.6 µM | – | > 100 µM | – | > 100 µM | 43 | > 100 µM | > 100 | 71.8 µM | – | – | –
19 | O=C1OC(CC(=O)c2ccc(Cl)c(Cl)c2)C(Cl)=C1Cl (configuration not stated) | > 100 µM | – | > 100 µM | – | – | – | > 100 µM | – | > 100 µM | – | > 100 µM | > 100 | > 100 µM | > 100 | > 100 µM | – | – | –
